Assay results reported in patent publication US10617678B2, “Treatment of restenosis using temsirolimus” (MERCATOR MEDSYSTEMS, INC., priority 2016, dated 2020).
Entries after “also recorded” stand apart in the source; their conditions may differ.

Legend:
[1] = tested on: femoral artery injured by angioplasty overstretch; experiment: Histopathology in porcine model of femoral artery injury; format: in vivo, Yorkshire pigs
[2] = clinical observations, clinical pathology, post mortem tissue analysis; adventitial injection with Bullfrog device
[3] = Pharmacokinetics: concentrations in harvested vessel tissues; format: in vivo, Yorkshire pigs; details: post-dosing
[4] = tested on: cell proliferation in the vessel wall and adventitia; experiment: Ki-67 staining of cellular proliferation in injured femoral vessels; format: in vivo, Yorkshire pigs; details: day 3, 7 and 28; 1.5 ml of 238 μg/ml perivascular injection
[5] = Pharmacokinetics: whole blood concentrations after adventitial injection; format: in vivo, Yorkshire pigs
Protocol: Temsirolimus Preparation. The 25 mg/ml of Torisel® (temsirolimus) was diluted to 10 mg/ml with the supplied diluent and further diluted to 476 μg/ml in 0.9% sodium chloride solution. Then, the 476 μg/ml temsirolimus was mixed at 1:1 ratio with a contrast medium, Isovue-370, for a final temsirolimus concentration of 238 μg/ml. This temsirolimus preparation was subsequently administered in temsirolimus-treated group pigs. Similarly, a control solution was prepared by mixing 0.9% sodium chloride solution at 1:1 ratio with a contrast medium, Isovue-370. This control solution was administered in control group pigs.
Temsirolimus-Treated Group.
Pharmacokinetics. Whole blood samples were taken following each injection at 5 minutes, 20 minutes, 1 hour, and then 24 hours and upon sacrifice. Whole blood samples were analyzed for circulating temsirolimus and sirolimus concentrations. FIG. 14A and FIG. 14B show the levels of temsirolimus and sirolimus, respectively, circulating in whole blood at 1 hour, and 3, 7, and 28 days post-procedure. The mean temsirolimus level in whole blood was highest at 1 hour after the first injection (32.1±11.0 ng/mL) and decreased by an order of magnitude within 24 hours (2.4±1.0 ng/mL).

[6] = 1.5 ml of 238 μg/ml perivascular injection, injured femoral artery

CO[C@H]1C[C@@H]2CC[C@@H](C)[C@@](O)(O2)C(=O)C(=O)N2CCCC[C@H]2C(=O)O[C@H]([C@H](C)C[C@@H]2CC[C@@H](OC(=O)C(C)(CO)CO)[C@H](OC)C2)CC(=O)[C@H](C)/C=C(\C)[C@@H](O)[C@@H](OC)C(=O)[C@H](C)C[C@H](C)/C=C/C=C/C=C/1C [temsirolimus]
neointima formation [1, 6]: no or minimal to mild and non-stenosing neointima formation | re-endothelialization [1, 6]: complete or near complete re-endothelialization | healing of treated vessels (histopathology) ([1]; 1.5 ml of 238 μg/ml temsirolimus into adventitia/perivascular tissue of each injured femoral artery): fully or nearly fully healed as early as day 7 | local or systemic toxicity [2]: no evidence of local or systemic toxicity | time temsirolimus was measured in local vascular tissue [3]: up to 28 days | cell proliferation throughout the vessel wall (Ki-67) compared to controls [4]: moderate to marked decrease; also recorded: reduced cellular proliferation | temsirolimus concentration in whole blood ([5]; 7 days post-procedure): below the limit of quantitation | temsirolimus concentration in whole blood ([5]; 28 days post-procedure): below the limit of quantitation | concentration at 1 h ([5]; Yorkshire, pig, whole blood, 357 µg per artery (1.5 ml of 238 µg/ml), 1 hour after the first injection, read-out: mean temsirolimus level in whole blood): 32.1 ± 11 ng/mL | concentration at 24 h ([5]; Yorkshire, pig, whole blood, 357 µg per artery (1.5 ml of 238 µg/ml), 24 hours, read-out: mean temsirolimus level in whole blood): 2.4 ± 1 ng/mL | temsirolimus concentration in whole blood ([5]; between 24 hours and 3 days): continued to decrease
